In patent publication US20200206198A1, “CFTR CHANNEL ACTIVATOR FOR USE IN THE TREATMENT AND/OR PREVENTION OF GLUTEN SENSITIVITY CONDITIONS” (priority 2017, published 2020):
Where a SMILES comes first, the peptide text is derived from it. [ ]: non-standard residue; d: D form. The star is where a group is joined. DON = [N-]=[N+]=CC(=O)CC[C@H](N)C(=O)O; Cbz = O=C(OCc1ccccc1)*

Key:
[1] = system: recombinant human NBD1 (rhNBD1); assay: Surface plasmon resonance peptide-protein interaction; type: binding; conditions: rhNBD1 immobilized on chip, different peptide concentrations
Procedure: Peptide-protein interactions were studied using a Biacore™ T100 (GE Healthcare) instrument. hrNBD1 domain or the indicated biotinylated peptides were immobilized by thiol coupling on a CMS (series S) sensor chip to a final density of 2000 resonance units (RU) or by biotin-streptavidin capture on a SA (series S) sensor chip to a final density of 250 RU, respectively. A flow cell with no immobilized protein or peptide was used as control. Binding analysis was carried out at 20° C. in a running buffer consisting of 10 mM HEPES, pH 7.4, 150 mM NaCl, 0.05% (v/v) Tween-20, 2 mM ATP, 5 mM MgCl2, 1 mM DTT applying a flow rate of 20 μl/min. For each experiment a Biacore™ method program was used. It included a series of three start up injections (running buffer), zero control (running buffer) and different concentrations of ligand. […] Each sensorgram (time-course of the surface plasmon resonance signal) was corrected for the response obtained in the control flow cell and normalized to baseline. Data were analysed using the 2.0.3 BIAevaluation software (GE Healthcare). At least three independent experiments for each analysis were performed.
FIG. 2: a, Protein-Protein docking and Molecular Dynamics of P31-43 (violet) bound to NBD1 (orange). Left side: general view of P31-43 and NBD1 interaction. Upper right: detailed interaction pattern, highlighting the most important amino acids. Lower right: in silico NBD1/P31-43 complex compared to the original crystallographic positions of Tip 401 and ATP. b, Graphical view of the in silico sampling percentage of P31-43 against NBD1/NBD2 (left 10 panel), and of P31-43/4QA (4QA) against NBD1 (right panel). c-d, Surface plasmon resonance (SPR) analysis of rhNBD1 binding to P31-43 and P57-68 biotinylated peptides immobilized on SA sensor chip (c) and of increasing concentrations of P31-43 and P57-68 peptides 15 on rhNBD1 covalently bound to the CMS sensor chip (d).

CFTR [2] = target: T1, CFTR (Homo sapiens, UniProt P13569); assay: CFTR channel function in intestinal epithelial cells (forskolin-induced Isc in Ussing chambers; SPQ iodide efflux); type: cell-based; conditions: 20 μg/ml peptide; intestinal epithelial cells (Caco-2, T84)
T1 construct: Immunoprecipitations of endogenous proteins were performed on 500 μg of lysates from Caco-2 cells; host or cells: Caco-2, T84
T1 sequence (P13569 whole entry): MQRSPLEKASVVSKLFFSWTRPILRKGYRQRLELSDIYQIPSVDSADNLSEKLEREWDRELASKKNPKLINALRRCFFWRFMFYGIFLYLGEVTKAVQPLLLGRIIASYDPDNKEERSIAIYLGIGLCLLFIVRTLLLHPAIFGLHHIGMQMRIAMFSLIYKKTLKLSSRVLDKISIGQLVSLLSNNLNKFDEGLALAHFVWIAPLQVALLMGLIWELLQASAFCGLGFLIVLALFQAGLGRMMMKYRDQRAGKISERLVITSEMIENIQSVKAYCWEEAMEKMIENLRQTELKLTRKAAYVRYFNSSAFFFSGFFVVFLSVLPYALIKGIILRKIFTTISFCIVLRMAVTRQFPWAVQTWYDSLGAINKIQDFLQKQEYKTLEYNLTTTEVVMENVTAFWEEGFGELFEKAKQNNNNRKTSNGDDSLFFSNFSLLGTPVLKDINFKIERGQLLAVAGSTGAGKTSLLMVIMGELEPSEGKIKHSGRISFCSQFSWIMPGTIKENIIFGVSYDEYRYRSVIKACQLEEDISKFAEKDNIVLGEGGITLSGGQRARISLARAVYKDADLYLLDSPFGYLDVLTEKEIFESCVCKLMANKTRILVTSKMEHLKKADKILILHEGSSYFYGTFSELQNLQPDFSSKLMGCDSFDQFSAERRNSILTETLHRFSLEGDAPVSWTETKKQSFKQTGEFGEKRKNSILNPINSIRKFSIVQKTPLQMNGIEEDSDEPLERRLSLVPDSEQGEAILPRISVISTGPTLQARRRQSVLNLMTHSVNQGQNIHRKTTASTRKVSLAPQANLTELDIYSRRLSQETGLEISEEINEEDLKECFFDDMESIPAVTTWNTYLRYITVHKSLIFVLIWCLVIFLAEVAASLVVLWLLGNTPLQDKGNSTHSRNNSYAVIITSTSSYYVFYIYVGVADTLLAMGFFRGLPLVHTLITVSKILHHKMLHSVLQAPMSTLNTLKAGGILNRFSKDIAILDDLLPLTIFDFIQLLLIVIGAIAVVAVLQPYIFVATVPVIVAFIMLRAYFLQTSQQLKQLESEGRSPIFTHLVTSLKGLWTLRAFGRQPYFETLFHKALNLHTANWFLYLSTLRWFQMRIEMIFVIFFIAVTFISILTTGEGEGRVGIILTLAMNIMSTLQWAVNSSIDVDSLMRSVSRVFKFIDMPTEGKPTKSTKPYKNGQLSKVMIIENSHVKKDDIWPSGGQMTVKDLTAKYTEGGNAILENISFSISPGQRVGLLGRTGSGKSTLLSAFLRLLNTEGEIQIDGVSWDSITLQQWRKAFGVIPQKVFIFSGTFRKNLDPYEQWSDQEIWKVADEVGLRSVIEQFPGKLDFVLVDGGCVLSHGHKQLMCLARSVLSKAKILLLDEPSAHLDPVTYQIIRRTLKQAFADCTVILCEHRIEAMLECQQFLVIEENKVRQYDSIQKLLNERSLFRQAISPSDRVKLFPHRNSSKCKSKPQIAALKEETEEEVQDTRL
Procedure: Human colon adenocarcinoma-derived Caco-2 and T84 cells (Barone, M. V. et al. 2014; Luciani, A. et al. 2010) were obtained from the ATCC. Cells were maintained in T25 flask in Modified Eagle Medium (MEM) for Caco-2, or Ham's F12+DMEM (1:1) for T84, supplemented with 10% fetal bovine serum (FBS), 2 mM Glutamine+1% Non Essential Amino Acids (NEAA) and the antibiotics penicillin\streptomycin (100 units/ml) (all reagents from Lonza). Caco-2 cells were grown in Transwells (Corning, 3470 or 3460) under the normal condition. Briefly, 8×10^4 or 5×10^5 cells were seeded in 6.5-mm diameter or 12-mm diameter, respectively, and grown until the RT reached 800 to 1,200 Ω·cm^2. Transwells with a pore size of 0.4 μm were used. Medium in both the apical and baso lateral chambers was changed every other day. Cells were treated with 20 μg/ml of either with the α-gliadin peptide comprising the P31-43 amino acid sequence of α-gliadin LGQQQPFPPQQPY (SEQ ID 1) (below referred to as P31-43), which is known to induce an enterocyte stress response (Meresse, B. et al.2009; Barone, M. V. et al. 2014; Luciani, A. et al. 2010), the T-cell activating α-gliadin peptide comprising the P57-68 amino acid sequence of α-gliadin (QLQPFPQPQLPY SEQ ID 2)) (below referred to as P57-68) (Maiuri, L., et al. 2003; Meresse, B. et al.2009; 30 Barone, M. V. et al. 2014), or the scrambled GAVAAVGVVAGA (SEQ ID 3) control peptide (below referred to as PGAV), or with different modified P31-43, either biotin-tagged or not, for different time points (from 1 h short challenge up to 24 h). Cells were also treated with 50 or 100 5 μg/ml of P57-68 or PGAV peptides for 3 h.
Caco-2 or T84 cells were also treated with: CFTR potentiators VX-770 (Ivacaftor) (10 μM) or VX-532 (20 μM) (Selleck chemicals) or Genistein (10 μM) (Verkman, A. S. et al. 2005; Jih, K. Y. et al. 2013) (Sigma-Aldrich) or in presence or absence of CFTR inhibitor172 (CFTRinh172, 20 μM).
Human colon adenocarcinoma-derived Caco-2 and T84 cells were obtained from the ATCC. Cells were maintained in T25 flask in Modified Eagle Medium (MEM) for Caco-2, or Ham's F12+DMEM (1:1) for T84, supplemented with 10% fetal bovine serum (FBS), 2 mM Glutamine+1% Non Essential Amino Acids (NEAA) and the antibiotics penicillin\streptomycin (100 units/ml) (all reagents from Lonza) (Luciani, A., et al. 2010. Cells were grown in Transwells (Corning, 3470 or 3460) under the normal condition (Luciani, A., et al. 2012). Briefly, 8×10^4 or 5×10^5 cells were seeded in 6.5-mm diameter or 12-mm diameter, respectively, and grown until the RT reached 800 to 1,200 Ω·cm2. Transwells with a pore size of 0.4 μm were used. Medium in both the apical and basolateral chambers was changed every other day. […]

CFTR [3] = target: T1, CFTR; assay: Co-immunoprecipitation of biotinylated peptides with CFTR in Caco-2 cells; type: cell-based; conditions: 1 h with biotinylated peptides
Procedure: Human colon adenocarcinoma-derived Caco-2 and T84 cells were obtained from the ATCC. Cells were maintained in T25 flask in Modified Eagle Medium (MEM) for Caco-2, or Ham's F12+DMEM (1:1) for T84, supplemented with 10% fetal bovine serum (FBS), 2 mM Glutamine+1% Non Essential Amino Acids (NEAA) and the antibiotics penicillin\streptomycin (100 units/ml) (all reagents from Lonza) (Luciani, A., et al. 2010. Cells were grown in Transwells (Corning, 3470 or 3460) under the normal condition (Luciani, A., et al. 2012). Briefly, 8×10^4 or 5×10^5 cells were seeded in 6.5-mm diameter or 12-mm diameter, respectively, and grown until the RT reached 800 to 1,200 Ω·cm2. Transwells with a pore size of 0.4 μm were used. Medium in both the apical and basolateral chambers was changed every other day. […] Cells were also treated with 50 or 100 μg/ml of P57-68 or PGAV peptides for 3 h. Caco-2 or T84 cells were also treated with: CFTR potentiators VX-770 (10 μM) or VX-532 (20 μM) (Selleck chemicals) or Genistein (10 μM) (Sigma-Aldrich) or in presence or absence of CFTR inhibitor172 (CFTRinh172, 20 μM) or 3-methyl-adenine (3-MA, 20 μM) (Calbiochem), Z-DON (20 nM, Zedira) or BAPTA-AM (10 μM, Calbiochem).
The separation of endosomal fractions was performed as described^9 from treated and untreated cells. Protein of endosomal fraction were resolved by SDS-Page and blotted with primary antibodies against Rab-5(Abcam 18211) 1:500, Rab-7(Abcam 77993) 1:500, EEA-1 (Abcam 2900) 1:500, TG2 or CFTR. EEA-1 was used as early endosome marker. For detection of complex with biotnylated-P31-43, the beads were resolved in non-reducing and non-denaturating conditions, and then blotted with Streptavidin-HRP (Sigma S2438) 1:3000 or anti-biotin (Abcam ab2103) 1:2500.

TG2 = target: T2, TG2 (Homo sapiens, UniProt P21980); assay: TG2 interaction and TG2 activity in Caco-2 cells; type: cell-based; conditions: Caco-2 cells
T2 construct: Immunoprecipitations of endogenous proteins were performed on 500 μg of lysates from Caco-2 cells; host or cells: Caco-2
T2 sequence (P21980 1-687): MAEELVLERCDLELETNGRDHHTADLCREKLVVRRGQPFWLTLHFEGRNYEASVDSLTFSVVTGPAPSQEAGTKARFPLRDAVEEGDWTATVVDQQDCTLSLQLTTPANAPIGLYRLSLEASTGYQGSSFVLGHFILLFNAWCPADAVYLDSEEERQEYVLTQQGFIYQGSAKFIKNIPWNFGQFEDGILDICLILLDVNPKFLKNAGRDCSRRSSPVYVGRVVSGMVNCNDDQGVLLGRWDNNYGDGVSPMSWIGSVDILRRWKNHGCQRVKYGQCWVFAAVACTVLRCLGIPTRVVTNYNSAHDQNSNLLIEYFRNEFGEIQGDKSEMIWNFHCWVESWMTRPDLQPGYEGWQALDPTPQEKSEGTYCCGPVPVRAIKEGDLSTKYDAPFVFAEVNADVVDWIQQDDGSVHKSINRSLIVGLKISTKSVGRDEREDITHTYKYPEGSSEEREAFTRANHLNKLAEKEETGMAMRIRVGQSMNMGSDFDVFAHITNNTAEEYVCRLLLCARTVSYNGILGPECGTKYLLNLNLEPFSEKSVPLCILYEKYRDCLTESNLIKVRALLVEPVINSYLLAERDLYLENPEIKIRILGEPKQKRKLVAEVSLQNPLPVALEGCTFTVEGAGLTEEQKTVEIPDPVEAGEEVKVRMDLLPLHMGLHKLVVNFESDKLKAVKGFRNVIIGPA
Procedure: Human colon adenocarcinoma-derived Caco-2 and T84 cells were obtained from the ATCC. Cells were maintained in T25 flask in Modified Eagle Medium (MEM) for Caco-2, or Ham's F12+DMEM (1:1) for T84, supplemented with 10% fetal bovine serum (FBS), 2 mM Glutamine+1% Non Essential Amino Acids (NEAA) and the antibiotics penicillin\streptomycin (100 units/ml) (all reagents from Lonza) (Luciani, A., et al. 2010. Cells were grown in Transwells (Corning, 3470 or 3460) under the normal condition (Luciani, A., et al. 2012). Briefly, 8×10^4 or 5×10^5 cells were seeded in 6.5-mm diameter or 12-mm diameter, respectively, and grown until the RT reached 800 to 1,200 Ω·cm2. Transwells with a pore size of 0.4 μm were used. Medium in both the apical and basolateral chambers was changed every other day. Cells were treated with 20 μg/ml of either α-gliadin peptide P31-43 or […] or scrambled PGAV or modified P31-43 either biotin-tagged or not, for different time point (from 1 h short challenge up to 24 h). Cells were also treated with 50 or 100 μg/ml of P57-68 or PGAV peptides for 3 h. Caco-2 or T84 cells were also treated with: CFTR potentiators VX-770 (10 μM) or VX-532 (20 μM) (Selleck chemicals) or Genistein (10 μM) (Sigma-Aldrich) or in presence or absence of CFTR inhibitor172 (CFTRinh172, 20 μM) or 3-methyl-adenine (3-MA, 20 μM) (Calbiochem), Z-DON (20 nM, Zedira) or BAPTA-AM (10 μM, Calbiochem).
The whole lysate or membrane fraction proteins of cell lines and mice intestine homogenates were obtained from treated and untreated cells or mice as described. The equal amount of protein were resolved by SDS-PAGE gel and blotted with antibodies against: SQSTM1, (Sigma Aldrich, 108k4767) 1:1000, PPARγ (Santa Cruz Biotechnology, sc7273) 1:500, BECN1 (Abcam, ab58878) 1:1000, CFTR clone M3A7 (Abcam, ab4067) 1:500, phospho-ERK1/2 (php42/44, Cell Signaling Technology, #91101) 1:1000, UVRAG (Santa Cruz Biotechnology sc8215) 1:1000, NHERF-1 (BD, 611161) 1:1000, EZRIN (BD, 610603) 1:1000, hVps34 (SigmaV9764) 1:300, biotin (Abcam, ab1227) 1:2000, PKAr2a (BD, 610625) 1:500, Ubiquitin (Cell Signaling clone P4D1, #3936) 1:1000, CHIP (Calbiochem PC711) 1:500, Caspase-1 p10 (M-20) (Santa Cruz Biotechnology, sc-514) 1:200, NLRP3 (Abcam, ab4207), 1:500, IDO1 (monoclonal; cv152) 1:1000^[80], used as primary antibodies. Normalization was performed by probing the membrane with anti-β-actin (Cell Signaling, #4970) 1:1000, anti-Gapdh (Sigma-Aldrich, G8795) 1:1000 and anti-flottilin (Abcam ab15148) 1:1000 antibodies. Immunoprecipitations of endogenous proteins were performed on 500 μg of lysates from Caco-2 cells. The proteins were incubated for 12-18 h at 4° C. with 10 ug\ml of specific antibody followed by the addition of Protein A/G-agarose beads for 4 h at 4° C. The beads were then washed three times with lysis buffer and Laemmli's sample buffer was added to the samples. The membranes were then blotted with: CFTR clone CF3 (Abcam, ab2784) 1:1000, TG2 (clone CUB7402; NeoMarkers) 1:1000, CHIP (Calbiochem PC711) 1:500, Ubiquitin (Cell Signaling clone P4D1 3936), isopeptide (Abcam 422) 1:1000, PKAR2 (BD 610625) 1:500.
For detection of complex with biotnylated-P31-43 or immune-complex of glutamime-lysine bonds, the beads were resolved in non-reducing and non-denaturating conditions, and then blotted with Streptavidin-HRP (Sigma 52438) 1:3000 or anti-biotin (Abcam ab2103) 1:2500 and anti-isopeptide (Abcam 422) 1:1000.
TG2 enzymatic activity in Caco-2, treated as described above, was detected: 1) by incubating unfixed sections with biotin-mono-dansylcadaverine (MDC, 10 mM, Molecular Probe) for 1 h at room temperature and then stained with Alexa-fluor488-Streptavidin, as previously described (JI2008/2009) or 2) or by incorporation of 5(biotinamido)pentylamines (BAP) into protein substrates. For BAP-incorporation, 2 mM BAP (Soltec Ventures, B110) were directly added into the medium together with the indicated treatments. […]

Row | Compound | SPR signal on immobilized rhNBD1 [1] | reduction of CFTR channel function in response to forskolin (CFTR [2]) | interaction (co-immunoprecipitation) with CFTR (CFTR [3]) | interaction (co-immunoprecipitation) with CFTR (CFTR [3]; listed as Q4A) | effect on P31-43-induced interaction of TG2 and CFTR (TG2)
1 | P57-68: T-cell activating α-gliadin peptide QLQPFPQPQLPY (SEQ ID 2) (P57-68 sequence of alpha-gliadin) | failed to induce any signal | – | – | – | –
2 | 4QA: P31-43 with glutamines at residues 4, 5, 10 and 11 substituted with alanines, LGQAAPFPPAAPY (SEQ ID 4) (P31-43 sequence of alpha gliadin with glutamine residues at positions 4, 5, 10 and 11 substituted with alanines) | failed to interact with NBD1 | failed to interact with CFTR and to inhibit its function | failed to interact with CFTR | did not co-immunoprecipitate with CFTR | –
3 | COC(=O)[C@H](CC(C)C)NC(=O)[C@@H]1CCCN1C(=O)[C@@H](NC(=O)[C@H](CCC(=O)C=[N+]=[N-])NC(=O)OCc1ccccc1)C(C)C [Z-DON] (Cbz-[DON]VPL-OMe) | – | – | – | – | prevented
4 | CC(=O)OCOC(=O)CN(CC(=O)OCOC(C)=O)c1ccccc1OCCOc1ccccc1N(CC(=O)OCOC(C)=O)CC(=O)OCOC(C)=O [BAPTA-AM] | – | – | – | – | prevented
